{"source": "ChEMBL document CHEMBL1131847", "about": "“Opsin shift in an aldolase antibody” (Bioorg Med Chem Lett, 1999)", "experiment": "Compound (1.7 x 10E-3 M) was evaluated for the formation of all-trans retinal schiff base with Lysine residue which exhibits significant Opsin shift of naturally occurring visual pigments; Active", "assay_type": "functional", "note": "The source made the active and inactive calls. The calls are words filed in the database; no cut-off is given here."}
{"compound": "CC1=C(/C=C/C(C)=C/C=C/C(C)=C/C=O)C(C)(C)CCC1", "values": [{"measurement": "Opsin shift activity", "value": "Active"}]}
